# Measured values from ChEMBL document CHEMBL1201862, “PubChem BioAssay data set” (2004).
# Activity calls are given as the source filed them.
# What was measured:
# [1] = molecular target: T1, Tyrosine-protein phosphatase non-receptor type 7 (Homo sapiens, UniProt P35236); format: functional
# T1 sequence (P35236 whole entry): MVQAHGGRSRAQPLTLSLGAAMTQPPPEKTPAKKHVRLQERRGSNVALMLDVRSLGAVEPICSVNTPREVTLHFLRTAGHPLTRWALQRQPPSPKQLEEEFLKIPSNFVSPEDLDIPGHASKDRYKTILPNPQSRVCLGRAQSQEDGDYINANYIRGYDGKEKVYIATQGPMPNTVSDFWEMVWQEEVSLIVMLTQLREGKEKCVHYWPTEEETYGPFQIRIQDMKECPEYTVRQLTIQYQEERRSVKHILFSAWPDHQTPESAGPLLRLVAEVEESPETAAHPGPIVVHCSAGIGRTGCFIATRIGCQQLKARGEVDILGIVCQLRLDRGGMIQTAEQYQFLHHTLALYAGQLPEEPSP
# [2] = molecular target: Glyceraldehyde-3-phosphate dehydrogenase (Homo sapiens, UniProt P04406)
# [3] = molecular target: T2, Dual specificity protein phosphatase 6 (Rattus norvegicus, UniProt Q64346); format: functional
# [4] = molecular target: T2, Dual specificity protein phosphatase 6
# [5] = molecular target: T3, Endoribonuclease toxin MazF (Escherichia coli K-12, UniProt P0AE70); test: fluorescent RNA oligo signal without MazF, dose response, counter-screen for MazEF activator project, biochemical, fluorescence, single-stranded RNase substrate (AID 588502); format: functional
# [6] = molecular target: T4, Corticotropin-releasing factor receptor 2/Corticotropin-releasing factor-binding protein (Homo sapiens, UniProt P24387+Q13324); test: activators of CRF receptor 2 with binding protein – uHTS hits, confirmation (AID 602473); format: functional; conditions: read-out: EC50_Mean
# T4 sequence (Q13324 whole entry): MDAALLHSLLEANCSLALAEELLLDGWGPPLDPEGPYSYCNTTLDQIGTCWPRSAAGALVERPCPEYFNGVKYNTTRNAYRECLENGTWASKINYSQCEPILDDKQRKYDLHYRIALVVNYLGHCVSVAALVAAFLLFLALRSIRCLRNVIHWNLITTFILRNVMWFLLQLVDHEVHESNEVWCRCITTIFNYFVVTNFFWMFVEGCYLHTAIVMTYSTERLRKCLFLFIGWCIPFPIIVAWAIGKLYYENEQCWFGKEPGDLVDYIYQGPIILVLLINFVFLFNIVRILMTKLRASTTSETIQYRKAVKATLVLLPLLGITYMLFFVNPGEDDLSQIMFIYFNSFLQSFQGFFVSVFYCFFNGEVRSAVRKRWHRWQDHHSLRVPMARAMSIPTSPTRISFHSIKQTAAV
# T4 sequence (P24387 whole entry): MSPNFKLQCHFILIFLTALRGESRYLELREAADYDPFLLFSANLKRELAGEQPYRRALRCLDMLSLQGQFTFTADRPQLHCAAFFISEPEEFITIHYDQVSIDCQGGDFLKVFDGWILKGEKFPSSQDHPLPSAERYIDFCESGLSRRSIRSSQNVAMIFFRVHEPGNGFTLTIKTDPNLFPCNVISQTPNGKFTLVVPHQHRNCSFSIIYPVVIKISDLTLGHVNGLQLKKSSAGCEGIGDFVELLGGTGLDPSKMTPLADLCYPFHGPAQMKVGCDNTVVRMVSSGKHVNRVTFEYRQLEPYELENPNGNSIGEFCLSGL
# [7] = molecular target: T3, Endoribonuclease toxin MazF; test: MazF toxin RNase activators, dose response, biochemical, fluorescence, single-stranded RNA substrate, uHTS hits (AID 588481); format: functional
# [8] = cytotoxicity in KRAS-transformed pancreatic duct cells, primary screen, cell-based, fluorescence, HTS (AID 431); format: functional; conditions: Homo sapiens;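 note: cell line used: HPDE-C7K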
# [9] = cytotoxicity in HPDE-C7 cells, cell-based, fluorescence, HTS (AID 430); format: functional; conditions: Homo sapiens
# HEK293 = test: inhibitors of LMP1-driven NF-kB reporter, dose response, cell-based, HEK293, luciferase, cherry-pick (AID 588343); format: functional; conditions: Homo sapiens
# [10] = molecular target: Latent membrane protein 1 (Human herpesvirus 4 (strain B95-8), UniProt P03230); test: TES1-eGFP NF-kB reporter inhibition versus Tet-On dsRED, dose response, selectivity assay for LMP1 NF-kB inhibitor project, imaging, HEK293T, dual-color eGFP/dsRED, cherry-picks (AID 588398); format: functional, cell-based
# [11] = growth suppression of beta-catenin-knockout colon cells, dose response, cell-based, HCT116, human colon tumor (AID 1045); format: functional;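 note: HCT116 colon tumor cells with beta catenin knocked out; cells exposed to compound for 60 hours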
# [12] = growth suppression of PTEN-null colon cells, dose response, cell-based, HCT116 PTEN knockout (AID 1047); format: functional;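 note: HCT116 colon tumor cells with PTEN knocked out; cells exposed to compound for 60 hours before readout; potency for loss of cell viability measured by luminescence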
# [13] = NIH-3T3 fibroblast cytotoxicity, dose response, cytotoxicity control, cell-based, fluorescence, Alamar Blue, secondary assay (AID 2327); format: functional;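 note: NIH-3T3 mouse fibroblasts cultured with fluconazole at 8 µg/mL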
# [14] = molecular target: T5, Serine/threonine-protein phosphatase (Candida dubliniensis (strain CD36 / CBS 7987 / NCPF 3949 / NRRLY-17841) (Yeast), UniProt B9W6M3); test: Fluorescence Cell-Based Secondary Assay to Identify Inhibitors of Calcineurin. [Related pubchem assays (depositor defined):AID1979, AID2007]; format: functional
# T5 sequence (B9W6M3 whole entry): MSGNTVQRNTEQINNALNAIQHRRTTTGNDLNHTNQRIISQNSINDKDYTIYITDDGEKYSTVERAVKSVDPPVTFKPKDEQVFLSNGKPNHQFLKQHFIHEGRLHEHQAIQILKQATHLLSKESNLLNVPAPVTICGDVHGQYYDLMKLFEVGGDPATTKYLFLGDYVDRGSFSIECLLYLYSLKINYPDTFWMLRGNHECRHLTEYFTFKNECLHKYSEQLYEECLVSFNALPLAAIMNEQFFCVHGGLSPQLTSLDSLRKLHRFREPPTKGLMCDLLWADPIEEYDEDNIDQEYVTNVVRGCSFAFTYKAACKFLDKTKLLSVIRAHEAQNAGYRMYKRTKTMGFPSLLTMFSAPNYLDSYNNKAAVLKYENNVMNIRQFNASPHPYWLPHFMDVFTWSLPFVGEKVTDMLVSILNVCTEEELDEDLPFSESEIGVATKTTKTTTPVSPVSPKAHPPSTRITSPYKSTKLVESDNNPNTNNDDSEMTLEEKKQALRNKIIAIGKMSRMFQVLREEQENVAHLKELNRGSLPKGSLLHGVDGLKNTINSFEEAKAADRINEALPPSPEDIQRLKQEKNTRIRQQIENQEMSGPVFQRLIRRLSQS
# [15] = molecular target: ATP-dependent molecular chaperone HSP82 (Candida albicans (strain WO-1) (Yeast), UniProt C4YTQ8); test: loss of DOC-induced GRE-beta-galactosidase reporter signal, dose response, Hsp90 inhibitor project, S. cerevisiae, luminescence (AID 2400); format: functional, cell-based;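 note: beta-galactosidase luminescence from glucocorticoid response element reporter as proxy for Hsp90 function; inhibitor potency where signal loss means Hsp90 inhibition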
# [16] = Luminescence Cell-Based Dose Retest to Confirm Inhibitors of Cancer Stem Cells. [Related pubchem assays (depositor defined):AID2717, AID2721]; format: functional; conditions: Homo sapiens
# [17] = C. albicans growth with fluconazole, confirmation, fluorescence, retest (AID 2467); format: functional, cell-based
# [18] = molecular target: T5, Serine/threonine-protein phosphatase; test: calcineurin pathway inhibitors in yeast reporter, dose response, S. cerevisiae, CDRE-lacZ, luminescence, secondary (AID 2388); format: functional, cell-based;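 note: yeast reporter cells carrying a calcineurin-responsive lacZ construct stimulated with calcium chloride; luminescent beta-galactosidase reporter signal in whole cells rather than isolated phosphatase activity; potency for inhibition where a drop in reporter signal means calcineurin blockade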
# T3 sequence (P0AE70 whole entry): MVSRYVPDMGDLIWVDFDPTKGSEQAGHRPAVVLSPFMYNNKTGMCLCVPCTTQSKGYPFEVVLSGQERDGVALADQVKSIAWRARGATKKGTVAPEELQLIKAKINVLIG
# T2 sequence (Q64346 whole entry): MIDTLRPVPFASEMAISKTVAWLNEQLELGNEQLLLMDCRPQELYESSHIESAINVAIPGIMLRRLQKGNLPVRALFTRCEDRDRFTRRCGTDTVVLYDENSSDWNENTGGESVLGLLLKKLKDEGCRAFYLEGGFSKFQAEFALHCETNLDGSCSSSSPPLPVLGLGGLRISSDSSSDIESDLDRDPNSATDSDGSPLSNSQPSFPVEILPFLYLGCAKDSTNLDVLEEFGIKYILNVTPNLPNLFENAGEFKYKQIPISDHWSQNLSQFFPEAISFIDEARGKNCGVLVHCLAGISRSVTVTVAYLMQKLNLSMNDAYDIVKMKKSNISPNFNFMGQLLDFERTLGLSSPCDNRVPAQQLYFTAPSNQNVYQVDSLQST
# Chain of Glyceraldehyde-3-phosphate dehydrogenase (P04406 whole entry): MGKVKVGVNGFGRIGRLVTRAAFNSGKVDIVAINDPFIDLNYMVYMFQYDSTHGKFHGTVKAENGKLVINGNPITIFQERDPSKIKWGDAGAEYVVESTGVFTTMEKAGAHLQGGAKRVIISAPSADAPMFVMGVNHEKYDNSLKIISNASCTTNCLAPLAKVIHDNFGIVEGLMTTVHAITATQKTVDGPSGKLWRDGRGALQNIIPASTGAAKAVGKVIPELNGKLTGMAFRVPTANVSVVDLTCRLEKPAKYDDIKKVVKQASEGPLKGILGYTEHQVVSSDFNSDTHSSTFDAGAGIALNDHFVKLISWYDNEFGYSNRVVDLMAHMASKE
# Chain of ATP-dependent molecular chaperone HSP82 (C4YTQ8 whole entry): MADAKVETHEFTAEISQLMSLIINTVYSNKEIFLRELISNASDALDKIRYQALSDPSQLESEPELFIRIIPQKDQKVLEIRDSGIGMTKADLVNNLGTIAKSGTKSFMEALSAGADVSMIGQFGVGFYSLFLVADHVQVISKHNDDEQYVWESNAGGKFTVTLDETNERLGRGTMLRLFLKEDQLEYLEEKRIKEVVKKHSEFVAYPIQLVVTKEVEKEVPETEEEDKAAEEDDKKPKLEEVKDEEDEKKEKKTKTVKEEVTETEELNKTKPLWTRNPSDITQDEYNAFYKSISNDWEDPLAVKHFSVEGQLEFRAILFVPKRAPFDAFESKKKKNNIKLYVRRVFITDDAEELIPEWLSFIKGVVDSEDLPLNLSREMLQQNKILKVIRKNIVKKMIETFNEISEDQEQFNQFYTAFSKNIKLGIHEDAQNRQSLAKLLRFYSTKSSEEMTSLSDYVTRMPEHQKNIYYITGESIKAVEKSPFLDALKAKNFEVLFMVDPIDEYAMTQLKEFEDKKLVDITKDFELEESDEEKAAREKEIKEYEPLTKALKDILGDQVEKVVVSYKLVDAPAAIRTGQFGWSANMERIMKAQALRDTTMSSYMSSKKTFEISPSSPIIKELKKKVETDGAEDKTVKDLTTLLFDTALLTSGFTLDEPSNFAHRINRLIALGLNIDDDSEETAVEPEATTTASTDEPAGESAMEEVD
# Chain of Latent membrane protein 1 (P03230 whole entry): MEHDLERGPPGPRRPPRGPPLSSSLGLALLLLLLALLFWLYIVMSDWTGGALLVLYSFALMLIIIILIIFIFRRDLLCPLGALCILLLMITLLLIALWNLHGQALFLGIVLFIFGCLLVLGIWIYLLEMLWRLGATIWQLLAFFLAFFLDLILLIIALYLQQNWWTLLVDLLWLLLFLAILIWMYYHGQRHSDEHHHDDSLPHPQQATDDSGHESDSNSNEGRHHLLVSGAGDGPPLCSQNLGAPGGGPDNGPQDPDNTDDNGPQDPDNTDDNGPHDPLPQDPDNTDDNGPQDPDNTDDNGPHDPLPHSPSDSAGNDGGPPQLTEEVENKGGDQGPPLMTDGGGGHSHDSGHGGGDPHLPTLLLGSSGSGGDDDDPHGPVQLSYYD
compound,measurement,setting,value
COCCCNc1nc(=O)n(-c2ccc(C)cc2)c(=O)[nH]1,IC50,[1],> 100 µM (not active)
same,IC50,[2],> 100 µM (not active)
same,IC50,[3],> 100 µM (inactive)
same,IC50,[4],> 100 µM (inactive)
CC1CCN(c2ccc3c(c2)S(=O)(=O)c2cccc(C(=O)NCc4ccc(F)cc4)c2C3=O)CC1,EC50,[5],38 µM (inactive)
same,EC50,[6],5.16 µM (active)
same,EC50,[7],> 99 µM (inactive)
COc1ccc(C(=O)C(CN2CCOCC2)c2ccccc2)cc1F (centres undefined),EC50,[8],8.65 µM (active)
same,EC50,[9],5.54 µM (active)
same,AC50,HEK293,13.2 µM (active)
same,AC50,[10],5.06 µM (active)
same,EC50,[11],1.31 µM (active)
same,EC50,[12],2.19 µM (active)
Cc1oc2c(F)c(F)c(F)c(F)c2c1S(=O)(=O)Nc1cccc(C(F)(F)F)c1,EC50,[13],> 160 µM (inconclusive)
same,EC50,[14],9.76 µM (active)
same,EC50,[15],4.6 µM (active)
same,AC50,[16],2.3 µM (active)
same,EC50,[17],0.859 µM (active)
same,EC50,[18],18.1 µM (active)
